In article PMC12567398, “New Assay Systems to Characterize the Broad-Spectrum Antiherpesviral and Non-Herpesviral Activity of Cyclin-Dependent Kinase (CDK) 8 Inhibitors” (Pharmaceuticals, 2025):
Where two headings read alike, the source gives them in different places.

Tests used:
in vitro [1] = settings: African green monkey
in vitro [2] = settings: human, CC50
in vitro [3] = settings: mouse
MHV-68-Luc = MHV-68-Luc luciferase reporter assay; assay type: cell-based, murine herpesvirus 68; settings: Murine herpesvirus
[4] = test system: Epstein–Barr virus P3HR-1; assay: EBV lytic assay in TPA-induced P3HR-1 cells, qPCR; assay type: cell-based
in vitro [5] = settings: human
HHV-6A-GFP = assay: HHV-6A plaque reduction assay in HFFs; settings: read-out: Antiviral mean EC50 based on plaque assay measurements
[6] = Neutral Red uptake cell viability assay, COS-7; settings: African green monkey
[7] = Neutral Red uptake cell viability assay, Vero; settings: African green monkey
[8] = Neutral Red uptake cell viability assay, HFF; settings: human
vaccinia virus VV IHD-5 = assay: microbe, parasite or virus in culture; assay type: cell-based
EHV-1-GFP = EHV-1-GFP antiviral assay, GFP fluorometry; assay type: cell-based, equine herpesvirus 1
[9] = Neutral Red uptake / Alamar Blue cell viability assay, 293T; settings: human
[10] = Neutral Red uptake cell viability assay, MEF; settings: mouse
RhCMV = test system: RhCMV; design: method as in ref 35, 38 (a number printed in a supplementary file, which may have a reference list of its own: not looked up in the article's list); settings: Table S1; read-out: antiviral EC50, RhCMV; cited from earlier work
MCMV = test system: MCMV; design: method as in ref 35, 38 (a number printed in a supplementary file, which may have a reference list of its own: not looked up in the article's list); settings: Table S1; read-out: antiviral EC50, MCMV; cited from earlier work
GPCMV = test system: GPCMV; design: method as in ref 35, 38 (a number printed in a supplementary file, which may have a reference list of its own: not looked up in the article's list); settings: Table S1; read-out: antiviral EC50, GPCMV; cited from earlier work
HSV-1 = test system: HSV-1; design: method as in ref 35, 38 (a number printed in a supplementary file, which may have a reference list of its own: not looked up in the article's list); settings: Table S1; read-out: antiviral EC50, HSV-1; cited from earlier work
EHV-1 = assay: EHV-1-specific qPCR of virus release into culture medium; assay type: cell-based, equine herpesvirus 1; settings: EHV-1, read-out: EC50
HCMV = test system: HCMV; design: method as in ref 35, 38 (a number printed in a supplementary file, which may have a reference list of its own: not looked up in the article's list); settings: Table S1; read-out: antiviral EC50, HCMV; cited from earlier work
HAdV = test system: HAdV; design: method as in ref 35, 38 (a number printed in a supplementary file, which may have a reference list of its own: not looked up in the article's list); settings: Table S1; read-out: antiviral EC50, HAdV; cited from earlier work
HHV-6A = test system: HHV-6A; design: method as in ref 35 (a number printed in a supplementary file, which may have a reference list of its own: not looked up in the article's list); settings: Table S1; J-Jhan cells; read-out: antiviral EC50, HHV-6A (J-Jhan); cited from earlier work
RCMV = test system: RCMV; design: method as in ref 35, 38 (a number printed in a supplementary file, which may have a reference list of its own: not looked up in the article's list); settings: Table S1; read-out: antiviral EC50, RCMV; cited from earlier work
KSHV = test system: KSHV; design: method as in ref 35, 38 (a number printed in a supplementary file, which may have a reference list of its own: not looked up in the article's list); settings: Table S1; read-out: antiviral EC50, KSHV; cited from earlier work
VZV = test system: VZV; design: method as in ref 35, 38 (a number printed in a supplementary file, which may have a reference list of its own: not looked up in the article's list); settings: Table S1; read-out: antiviral EC50, VZV; cited from earlier work
ChCMV = test system: ChCMV; design: method as in ref 35, 38 (a number printed in a supplementary file, which may have a reference list of its own: not looked up in the article's list); settings: Table S1; read-out: antiviral EC50, ChCMV; cited from earlier work
[11] = human gammaherpesvirus 4, 240 h, EBV, TPA-induced P3HR-1, 10 d, read-out: Antiviral mean EC50 based on qPCR measurements
[12] = CC50, COS-7, listed with GFP / COS-7 (Fig 1E)
[13] = CC50, Vero, reference compounds (Fig 1E)
[14] = mean CC50, HFF, HHV-6A assay conditions (Fig 2D)
[15] = Orthopoxvirus vaccinia, 48 h, read-out: Antiviral mean EC50 based on luciferase measurements

Structure (SMILES): Nc1nc2c(ncn2COCCO)c(=O)[nH]1 [ACV, aciclovir]
- CC50 at 7 d (in vitro [1]): > 100 µM
- CC50 (in vitro [2]): > 100 µM
- CC50 at 7 d (in vitro [3]): > 100 µM
- EC50 (MHV-68-Luc; MHV-68-Luc, HFF): > 5 µM
- EC50 (MHV-68-Luc; MHV-68-Luc, MEF): 22.2 ± 5.5 µM
- EC50 (MHV-68-Luc; Vero, MHV-68-Luc): 0.3 ± 0.3 µM

Structure (SMILES): CC(C)(C)C(=O)OCOP(=O)(COCCn1cnc2c(N)ncnc21)OCOC(=O)C(C)(C)C [ADV, adefovir dipivoxil]
- EC50 [4, 11]: 1.7 ± 0.2 µM
- CC50 at 10 d (in vitro [5]): 93 µM

Structure (SMILES): Nc1ncnc2c1ncn2CCOCP(=O)(O)O [AFV, adefovir]
- EC50 [4, 11]: 13 ± 5 µM
- CC50 (in vitro [5]): > 100 µM

Structure (SMILES): CCCCCCCCCCCCCCCCOCCCOP(=O)(O)CO[C@H](CO)Cn1ccc(N)nc1=O [BCV, brincidofovir]
- EC50 (HHV-6A-GFP; Human betaherpesvirus 6A): 0.002 ± 0.001 µM
- CC50 at 4 d ([6]; CC50, COS-7 (Fig 4F)): > 10 µM
- CC50 at 4 d [6, 12]: 9.8 ± 1.9 µM
- CC50 at 7 d ([7]; CC50, Vero (Fig 4F)): > 10 µM
- CC50 at 7 d [7, 13]: 1.3 ± 1.4 µM
- CC50 ([8]; CC50, HFF, reference compounds (Fig 1E)): 19 ± 3 µM
- CC50 [8, 14]: > 10 µM
- EC50 (vaccinia virus VV IHD-5; [15]): 1.9 ± 0.4 µM
- EC50 (EHV-1-GFP): 0.03 ± 0.01 µM
- EC50 (EHV-1-GFP; COS-7): 0.04 ± 0.003 µM
- EC50 (EHV-1-GFP; Equus caballus, Vero): 0.002 ± 0.003 µM
- CC50 at 2 d [9]: > 10 µM
- CC50 at 7 d [10]: > 10 µM
- EC50 (MHV-68-Luc; COS-7, MHV-68-Luc, COS-7): 0.2 ± 0.04 µM
- EC50 (MHV-68-Luc; MHV-68-Luc, HFF): > 0.5 µM
- EC50 (MHV-68-Luc; MHV-68-Luc, MEF): 0.1 ± 0.07 µM
- EC50 (MHV-68-Luc; Vero, MHV-68-Luc): 0.01 ± 0.003 µM

Structure (SMILES): Nc1ccn(C[C@@H](CO)OCP(=O)(O)O)c(=O)n1 [CDV, cidofovir]
- EC50 (HHV-6A-GFP; Human betaherpesvirus 6A): 0.4 ± 0.1 µM
- CC50 at 4 d [6, 12]: 85.6 ± 6.6 µM
- CC50 at 7 d [7, 13]: > 100 µM
- CC50 [8, 14]: > 100 µM
- EC50 (EHV-1-GFP; COS-7): 3.2 ± 3.8 µM
- EC50 (EHV-1-GFP; Equus caballus, Vero): 4.5 ± 2.4 µM

Structure (SMILES): O=C(O)P(=O)(O)O [FOS, foscarnet]
- CC50 at 7 d ([7]; CC50, Vero (Fig 4F)): > 1000 µM
- CC50 ([8]; CC50, HFF (Fig 4F)): > 1000 µM
- CC50 at 7 d [10]: > 1000 µM
- EC50 (MHV-68-Luc; MHV-68-Luc, HFF): > 500 µM
- EC50 (MHV-68-Luc; MHV-68-Luc, MEF): 41.5 ± 17.5 µM
- EC50 (MHV-68-Luc; Vero, MHV-68-Luc): 36.4 ± 10.8 µM

Structure (SMILES): COc1cccc(N2CCN(C3=Nc4c(F)cccc4[C@H](CC(=O)O)N3c3cc(C(F)(F)F)ccc3OC)CC2)c1 [LMV, letermovir]
- EC50 (vaccinia virus VV IHD-5; [15]): > 50 µM
- EC50 (MHV-68-Luc; MHV-68-Luc, HFF): > 50 µM
- EC50 (MHV-68-Luc; MHV-68-Luc, MEF): > 50 µM
- EC50 (MHV-68-Luc; Vero, MHV-68-Luc): 44 ± 3.2 µM

Structure (SMILES): CC(C)Nc1nc2cc(Cl)c(Cl)cc2n1[C@H]1O[C@@H](CO)[C@H](O)[C@@H]1O [MBV, maribavir]
- CC50 at 4 d ([6]; CC50, COS-7 (Fig 4F)): > 100 µM
- CC50 at 7 d ([7]; CC50, Vero (Fig 4F)): > 1000 µM
- CC50 ([8]; CC50, HFF (Fig 4F)): 163 ± 9 µM
- CC50 at 7 d [10]: 179 ± 10 µM
- EC50 (MHV-68-Luc; COS-7, MHV-68-Luc, COS-7): > 50 µM
- EC50 (MHV-68-Luc; MHV-68-Luc, HFF): 269 ± 55.5 µM
- EC50 (MHV-68-Luc; MHV-68-Luc, MEF): 59.6 ± 2.2 µM
- EC50 (MHV-68-Luc; Vero, MHV-68-Luc): 88.9 ± 13.6 µM

Structure (SMILES): Cc1n[nH]c2ncc(C(=O)N3CCC[C@H]3c3ccc(Cl)cc3)cc12 [MSC-2530818]
- EC50 (RhCMV): 0.002 ± 0.001 µM
- EC50 ([4]; Table S1, read-out: antiviral EC50, EBV): 1.4 ± 0.6 µM
- EC50 (MCMV): 0.02 ± 0.02 µM
- EC50 (HHV-6A-GFP; HHV-6A, HFF): 0.2 ± 0.4 µM
- EC50 (GPCMV): 0.03 ± 0.05 µM
- EC50 (HSV-1): 42.3 ± 4.9 µM
- EC50 (EHV-1; qPCR / COS-7): 0.7 ± 0.9 µM
- EC50 (EHV-1; qPCR / HFF): 0.08 ± 0.2 µM
- EC50 (HCMV): 0.001 ± 0.0007 µM
- CDK8 inhibitor sensitivity of SARS-CoV-2 in Caco-2 cells (SARS-CoV-2 d6-YFP; in words): low level of sensitivity
- EC50 (SARS-CoV-2 d6-YFP; read-out: Antiviral mean EC50 based on YFP measurements, SARS-CoV-2 d6-YFP, Caco-2, […]): ≥ 15.4 µM
- EC50 (SARS-CoV-2 d6-YFP; read-out: antiviral EC50, SARS-CoV-2, Table S1): 15.4 ± 6.4 µM
- EC50 (HAdV): 0.3 ± 0.3 µM
- EC50 (HHV-6A): > 50 µM
- EC50 (RCMV): 0.003 ± 0.008 µM
- EC50 (KSHV): > 40 µM
- EC50 (vaccinia virus VV IHD-5; read-out: antiviral EC50, VV): > 50 µM
- CC50 (MEFs): > 100 µM
- CC50 (P3HR-1 cells): > 100 µM
- EC50 (VZV): > 50 µM
- CC50 (Caco-2 cells): > 100 µM
- CC50 (Vero cells): > 100 µM
- CC50 (293T-tdTom-Luc cells): > 100 µM
- EC50 (ChCMV): 0.02 ± 0.03 µM
